Assay results taken from ChEMBL document CHEMBL1122286, “Heterocyclic oxyacetic acid diuretics: indazole, benzisothiazole, and benzisothiazole 1,1-dioxide analogues of [[7-chloro-3-(2-fluorophenyl)-1,2-benzisoxazol-6-yl]oxy]acetic acid” (1983).

Assays:
Format in all cases: functional, Urine
Mus musculus [1] = assay: Compound was tested for diuretic activity after oral administration of 64 mg/kg in saline-loaded mice (vehicle control value=0.05)
Mus musculus [2] = assay: Compound was tested for diuretic activity after oral administration of 64 mg/kg in saline-loaded mice (vehicle control value=0.6)
Mus musculus [3] = assay: Compound was tested for diuretic activity per os in saline-loaded mice at 64 mg/kg. (vehicle control value=1.22)
Mus musculus [4] = assay: Compound was tested for diuretic activity after oral administration of 64 mg/kg in saline-loaded mice (vehicle control value=0.8)
Mus musculus [5] = assay: Compound was tested for diuretic activity after oral administration of 64 mg/kg in saline-loaded mice vehicle control value=0.72)
Mus musculus [6] = assay: Compound was tested for diuretic activity after oral administration of 64 mg/kg in saline-loaded mice (vehicle control value=0.42)
Mus musculus [7] = assay: Compound was tested for diuretic activity after oral administration of 64 mg/kg in saline-loaded mice (vehicle control value=0.68)
Mus musculus [8] = assay: Compound was tested for diuretic activity after oral administration of 64 mg/kg in saline-loaded mice (vehicle control value=0.27)
Mus musculus [9] = assay: Compound was tested for diuretic activity after oral administration of 64 mg/kg in saline-loaded mice (vehicle control value=0.56)
Mus musculus [10] = assay: Compound was tested for diuretic activity after oral administration of 64 mg/kg in saline-loaded mice vehicle control value=0.25)
Mus musculus [11] = assay: Compound was tested for diuretic activity after oral administration of 64 mg/kg in saline-loaded mice (vehicle control value=0.3)
Mus musculus [12] = assay: Compound was tested for diuretic activity after oral administration of 64 mg/kg in saline-loaded mice (vehicle control value=0.2)
Mus musculus [13] = assay: Compound was tested for diuretic activity after oral administration of 64 mg/kg in saline-loaded mice (vehicle control value=0.1)

SMILES: O=C(O)COc1ccc2c(-c3ccccc3F)noc2c1Cl
- Diuretic activity (Mus musculus [1]): 10 m equiv [Na+] 5hr-1kg-1

SMILES: O=C(O)COc1ccc2c(-c3ccccc3Cl)noc2c1Cl
- Diuretic activity (Mus musculus [2]): 9.1 m equiv [Na+] 5hr-1kg-1

SMILES: O=C(O)COc1ccc2c(-c3ccccc3)nsc2c1Cl
- Diuretic activity (Mus musculus [3]): 2.28 (m equiv [Na+]) 5hr-1 kg-1

SMILES: O=C(O)COc1ccc(C2=NS(=O)(=O)c3ccccc32)c(Cl)c1Cl
- Diuretic activity (Mus musculus [4]): 2.03 m equiv [Na+] 5hr-1kg-1

SMILES: O=C(O)COc1ccc(-c2nsc3ccccc23)c(Cl)c1Cl
- Diuretic activity (Mus musculus [5]): 1.18 m equiv [Na+] 5hr-1kg-1

SMILES: O=C(O)COc1ccc2c(c1Cl)S(=O)(=O)N=C2c1ccccc1F
- Diuretic activity (Mus musculus [4]): 0.18 m equiv [Na+] 5hr-1kg-1

SMILES: Cn1nc(-c2ccc(OCC(=O)O)c(Cl)c2Cl)c2ccccc21
- Diuretic activity (Mus musculus [6]): 0.61 m equiv [Na+] 5hr-1kg-1

SMILES: Cn1nc(-c2ccccc2Cl)c2ccc(OCC(=O)O)c(Cl)c21
- Diuretic activity (Mus musculus [7]): 2.29 m equiv [Na+] 5hr-1kg-1

SMILES: O=C(O)COc1ccc2c(-c3ccccc3F)[nH]nc2c1Cl
- Diuretic activity (Mus musculus [8]): 0.45 m equiv [Na+] 5hr-1kg-1

SMILES: O=C(O)COc1ccc(-c2[nH]nc3ccccc23)c(Cl)c1Cl
- Diuretic activity (Mus musculus [9]): 0.65 m equiv [Na+] 5hr-1kg-1

SMILES: O=C(O)COc1ccc2c(-c3ccccc3F)nsc2c1Cl
- Diuretic activity (Mus musculus [10]): 4.59 m equiv [Na+] 5hr-1kg-1

SMILES: C=C(CC)C(=O)c1ccc(OCC(=O)O)c(Cl)c1Cl [ETHACRYNIC ACID]
- Diuretic activity (Mus musculus [11]): 4.14 (m equiv [Na+]) kg-1

SMILES: CC1(c2ccccc2)Cc2cc(OCC(=O)O)c(Cl)c(Cl)c2C1=O (centres undefined) [INDACRINONE]
- Diuretic activity (Mus musculus [12]): 7.6 m equiv [Na+] 5hr-1kg-1

SMILES: O=C(O)COc1ccc(C(=O)c2cccs2)c(Cl)c1Cl [TICRYNAFEN]
- Diuretic activity (Mus musculus [13]): 3.31 m equiv [Na+] 5hr-1kg-1
